Measurements taken from patent US20260176320A1, “MODULATORS OF G-PROTEIN COUPLED RECEPTORS” (priority 2018, published 2026).
Like-named read-outs stand apart in the source and are kept apart here.

Columns and labels:
GLP-1R = GLP-1R (Homo sapiens, UniProt P43220); assay: HitHunter cAMP assay (GLP-1R); type: cell-based; conditions: cAMP; for Emax: read-out: (Emax) GLP-1R
Method in brief: (§1)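 cAMP, luminescence read: agonist 22-pt 2× dilution in DMSO, duplicate, 30 min RT on 10,000 cells/well in 1×HBSS/10 mM HEPES/625 μM IBMX/0.2% BSA; anti-cAMP reagent 1 h RT dark, then O/N RT dark before read.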

GIP-R = molecular target: T1, GIP-R (Homo sapiens, UniProt P48546); assay: HitHunter cAMP assay (GIP-R); type: cell-based; conditions: cAMP; for Emax at 1 µM: read-out: (Emax) GIP-R at 1 μM, Table 3; for Emax: read-out: (Emax) GIP-R
T1 sequence (P48546 22-466): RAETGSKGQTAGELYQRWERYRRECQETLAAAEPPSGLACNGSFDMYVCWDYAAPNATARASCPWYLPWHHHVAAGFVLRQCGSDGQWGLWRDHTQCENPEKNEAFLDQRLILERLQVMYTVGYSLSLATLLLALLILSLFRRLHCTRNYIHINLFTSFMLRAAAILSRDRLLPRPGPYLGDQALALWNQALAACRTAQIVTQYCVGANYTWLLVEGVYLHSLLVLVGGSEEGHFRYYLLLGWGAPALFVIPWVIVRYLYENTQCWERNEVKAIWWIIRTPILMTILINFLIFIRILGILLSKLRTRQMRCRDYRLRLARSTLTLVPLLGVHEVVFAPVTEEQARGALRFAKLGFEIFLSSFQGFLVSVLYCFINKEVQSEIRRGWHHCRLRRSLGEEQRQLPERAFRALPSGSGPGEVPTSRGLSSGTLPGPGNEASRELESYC
Method in brief: as §1

[1] = Table 3, read-out: EC50 GLP-1R/nM
[2] = Table 3A, read-out: EC50 GLP-1R/nM

Chain of GLP-1R (P43220 24-463): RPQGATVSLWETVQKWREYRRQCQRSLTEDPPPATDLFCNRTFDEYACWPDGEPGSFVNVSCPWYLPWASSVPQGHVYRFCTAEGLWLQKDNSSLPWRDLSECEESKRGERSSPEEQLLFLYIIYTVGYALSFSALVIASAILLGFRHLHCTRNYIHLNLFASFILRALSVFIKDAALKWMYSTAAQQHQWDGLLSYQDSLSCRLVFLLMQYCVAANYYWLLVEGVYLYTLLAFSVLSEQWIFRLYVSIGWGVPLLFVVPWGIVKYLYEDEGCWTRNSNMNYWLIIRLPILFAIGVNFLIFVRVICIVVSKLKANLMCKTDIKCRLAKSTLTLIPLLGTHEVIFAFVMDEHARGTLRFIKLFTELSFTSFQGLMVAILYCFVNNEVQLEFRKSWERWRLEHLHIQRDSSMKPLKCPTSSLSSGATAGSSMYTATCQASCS

SMILES | Emax (GLP-1R; Table 3) | EC50 (GLP-1R; [1]) | Emax (GLP-1R; Table 3A) | EC50 (GLP-1R; [2]) | Emax at 1 µM (GIP-R) | EC50 (GLP-1R; EC50 GLP-1R/nM, Table 3A) | EC50 (GIP-R; EC50 GIP-R/nM, Table 3A) | Emax (GIP-R; Table 3A) | EC50 (GIP-R; Table 3, read-out: EC50 GIP-R/nM) | EC50 (GIP-R; Table 3A, read-out: EC50 GIP-R/nM) | EC50 (GLP-1R; EC50 GLP-1R/nM, Table 3) | EC50 (GIP-R; EC50 GIP-R/nM, Table 3)
CCCCCCCCCCCCCCCC(=O)N[C@@H](CCC(=O)NCCCC[C@H](NC(=O)[C@H](CO)NC(=O)[C@@H]1CCCN1C(=O)[C@@H]1CCCN1C(=O)[C@@H]1CCCN1C(=O)[C@H](C)NC(=O)CNC(=O)[C@H](CO)NC(=O)[C@H](CO)NC(=O)[C@@H]1CCCN1C(=O)CNC(=O)CNC(=O)[C@H](C)NC(=O)[C@H](CC(C)C)NC(=O)[C@H](CC(C)C)NC(=O)[C@H](Cc1c[nH]c2ccccc12)NC(=O)[C@H](CC(N)=O)NC(=O)[C@@H](NC(=O)[C@H](Cc1ccccc1)NC(=O)[C@H](CCC(=O)O)NC(=O)C(C)(C)NC(=O)[C@H](C)NC(=O)[C@H](C)NC(=O)[C@H](CCC(N)=O)NC(=O)[C@H](CCCCN)NC(=O)[C@H](CC(=O)O)NC(=O)[C@H](CC(C)C)NC(=O)[C@H](Cc1ccc(O)cc1)NC(=O)[C@@H](NC(=O)[C@H](CO)NC(=O)[C@H](Cc1ccc(O)cc1)NC(=O)[C@H](CC(=O)O)NC(=O)[C@H](CO)NC(=O)[C@@H](NC(=O)[C@H](Cc1ccccc1)NC(=O)[C@@H](NC(=O)CNC(=O)[C@H](CCC(=O)O)NC(=O)CSCC(=O)NCCC1=CCCC1)[C@@H](C)O)[C@@H](C)O)[C@@H](C)CC)C(C)C)C(N)=O)C(=O)O [Compound 54] | 107% | < 0.1 nM | 107% | < 0.1 nM | 6% |  |  |  |  |  |  | 
CCCCCCCCCCCCCCCC(=O)N[C@@H](CCC(=O)NCCCC[C@H](NC(=O)[C@H](CO)NC(=O)[C@@H]1CCCN1C(=O)[C@@H]1CCCN1C(=O)[C@@H]1CCCN1C(=O)[C@H](C)NC(=O)CNC(=O)[C@H](CO)NC(=O)[C@H](CO)NC(=O)[C@@H]1CCCN1C(=O)CNC(=O)CNC(=O)[C@H](C)NC(=O)[C@H](CC(C)C)NC(=O)[C@H](CC(C)C)NC(=O)[C@H](Cc1c[nH]c2ccccc12)NC(=O)[C@H](CC(N)=O)NC(=O)[C@@H](NC(=O)[C@H](Cc1ccccc1)NC(=O)[C@H](CCC(=O)O)NC(=O)C(C)(C)NC(=O)[C@H](C)NC(=O)[C@H](C)NC(=O)[C@H](CCC(N)=O)NC(=O)[C@H](CCCCN)NC(=O)[C@H](CC(=O)O)NC(=O)[C@H](CC(C)C)NC(=O)[C@H](Cc1ccc(O)cc1)NC(=O)[C@@H](NC(=O)[C@H](CO)NC(=O)[C@H](Cc1ccc(O)cc1)NC(=O)[C@H](CC(=O)O)NC(=O)[C@H](CO)NC(=O)[C@@H](NC(=O)[C@H](Cc1ccccc1)NC(=O)[C@@H](NC(=O)CNC(=O)[C@H](CCC(=O)O)NC(=O)CSCC(=O)NCCN1C(=O)[C@@H]2CC[C@H]1C2)[C@@H](C)O)[C@@H](C)O)[C@@H](C)CC)C(C)C)C(N)=O)C(=O)O [Compound 291] |  |  | 100% |  |  | 0.1 to 1 nM | 1 to 10 nM | 60% |  |  |  | 
CCCCCCCCCCCCCCCC(=O)N[C@@H](CCC(=O)NCCCC[C@H](NC(=O)[C@H](CO)NC(=O)[C@@H]1CCCN1C(=O)[C@@H]1CCCN1C(=O)[C@@H]1CCCN1C(=O)[C@H](C)NC(=O)CNC(=O)[C@H](CO)NC(=O)[C@H](CO)NC(=O)[C@@H]1CCCN1C(=O)CNC(=O)CNC(=O)[C@H](C)NC(=O)[C@H](CC(C)C)NC(=O)[C@H](CC(C)C)NC(=O)[C@H](Cc1c[nH]c2ccccc12)NC(=O)[C@H](CC(N)=O)NC(=O)[C@@H](NC(=O)[C@H](Cc1ccccc1)NC(=O)[C@H](CCC(=O)O)NC(=O)C(C)(C)NC(=O)[C@H](C)NC(=O)[C@H](C)NC(=O)[C@H](CCC(N)=O)NC(=O)[C@H](CCCCN)NC(=O)[C@H](CC(=O)O)NC(=O)[C@H](CC(C)C)NC(=O)[C@H](Cc1ccc(O)cc1)NC(=O)[C@@H](NC(=O)[C@H](CO)NC(=O)[C@H](Cc1ccc(O)cc1)NC(=O)[C@H](CC(=O)O)NC(=O)[C@H](CO)NC(=O)[C@@H](NC(=O)[C@H](Cc1ccccc1)NC(=O)[C@@H](NC(=O)CNC(=O)[C@H](CCC(=O)O)NC(=O)CSCC(=O)NCCN1Cc2ccccc2CC1=O)[C@@H](C)O)[C@@H](C)O)[C@@H](C)CC)C(C)C)C(N)=O)C(=O)O [Compound 270] |  |  | 90% |  |  | 1 to 10 nM | 1 to 10 nM | 90% |  |  |  | 
CC[C@H](C)[C@H](NC(=O)[C@H](CO)NC(=O)[C@H](Cc1ccc(O)cc1)NC(=O)[C@H](CC(=O)O)NC(=O)[C@H](CO)NC(=O)[C@@H](NC(=O)[C@H](Cc1ccccc1)NC(=O)[C@@H](NC(=O)CNC(=O)[C@H](CCC(=O)O)NC(=O)CC(C)CC(=O)NCCN1C(=O)CSC1=O)[C@@H](C)O)[C@@H](C)O)C(=O)N[C@@H](Cc1ccc(O)cc1)C(=O)N[C@@H](CC(C)C)C(=O)N[C@@H](CC(=O)O)C(=O)N[C@@H](CCCCN)C(=O)N[C@@H](CCC(N)=O)C(=O)N[C@@H](C)C(=O)N[C@@H](C)C(=O)NC(C)(C)C(=O)N[C@@H](CCC(=O)O)C(=O)N[C@@H](Cc1ccccc1)C(=O)N[C@H](C(=O)N[C@@H](CC(N)=O)C(=O)N[C@@H](Cc1c[nH]c2ccccc12)C(=O)N[C@@H](CC(C)C)C(=O)N[C@@H](CC(C)C)C(=O)N[C@@H](C)C(=O)NCC(=O)NCC(=O)N1CCC[C@H]1C(=O)N[C@@H](CO)C(=O)N[C@@H](CO)C(=O)NCC(=O)N[C@@H](C)C(=O)N1CCC[C@H]1C(=O)N1CCC[C@H]1C(=O)N1CCC[C@H]1C(=O)N[C@@H](CO)C(=O)N[C@@H](CCCCN)C(N)=O)C(C)C (mixture of isomers) [Compound 120] | 91% | 1 to 10 nM | 91% | 1 to 10 nM | 6% |  |  |  | > 1000 nM | > 1000 nM |  | 
CC[C@H](C)[C@H](NC(=O)[C@H](CO)NC(=O)[C@H](Cc1ccc(O)cc1)NC(=O)[C@H](CC(=O)O)NC(=O)[C@H](CO)NC(=O)[C@@H](NC(=O)[C@H](Cc1ccccc1)NC(=O)[C@@H](NC(=O)CNC(=O)[C@H](CCC(=O)O)NC(=O)CSCC(=O)NCCN1C(=O)CC(c2ccccc2)C1=O)[C@@H](C)O)[C@@H](C)O)C(=O)N[C@@H](Cc1ccc(O)cc1)C(=O)N[C@@H](CC(C)C)C(=O)N[C@@H](CC(=O)O)C(=O)N[C@@H](CCCCN)C(=O)N[C@@H](CCC(N)=O)C(=O)N[C@@H](C)C(=O)N[C@@H](C)C(=O)NC(C)(C)C(=O)N[C@@H](CCC(=O)O)C(=O)N[C@@H](Cc1ccccc1)C(=O)N[C@H](C(=O)N[C@@H](CC(N)=O)C(=O)N[C@@H](Cc1c[nH]c2ccccc12)C(=O)N[C@@H](CC(C)C)C(=O)N[C@@H](CC(C)C)C(=O)N[C@@H](C)C(=O)NCC(=O)NCC(=O)N1CCC[C@H]1C(=O)N[C@@H](CO)C(=O)N[C@@H](CO)C(=O)NCC(=O)N[C@@H](C)C(=O)N1CCC[C@H]1C(=O)N1CCC[C@H]1C(=O)N1CCC[C@H]1C(=O)N[C@@H](CO)C(=O)N[C@@H](CCCCN)C(N)=O)C(C)C (mixture of isomers) [Compound 105] | 90% |  | 90% |  | < 10% | 10 to 100 nM |  |  |  |  | 10 to 100 nM | 10 to 100 nM
